Measurements as given in the supplement of paper PMC10307832.

What was measured:
Experiment in all cases: relative viability (nuclei count vs DMSO), 5 days (fraction); higher = more cells survive
Selisistat + AZD7762 = compound: C1CC(C2=C(C1)C3=C(N2)C=CC(=C3)Cl)C(=O)N [Selisistat] + NC(=O)Nc1cc(-c2cccc(F)c2)sc1C(=O)N[C@H]1CCCNC1 [AZD7762] (partner 0.2 µM)
In short: (§1)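 Lung cancer cell lines in 1536-well plates were dosed by pin tool the day after seeding, either with one drug alone or with a fixed anchor-drug dose plus five library-drug doses (not always all listed) in √10 steps. After 5 days, cells were fixed and their nuclei stained in one step (final 0.05% Triton X-100, 1% formaldehyde, 1 ug/ml Hoechst), then counted on 4× images. Relative viability is the nuclei count in treated wells divided by that in vehicle wells. Values are medians of duplicate plates.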

Selisistat + Luminespib = compound: C1CC(C2=C(C1)C3=C(N2)C=CC(=C3)Cl)C(=O)N [Selisistat] + CCNC(=O)c1noc(-c2cc(C(C)C)c(O)cc2O)c1-c1ccc(CN2CCOCC2)cc1 [Luminespib] (partner 0.01 µM)
In short: as §1

Selisistat + Palbociclib = compound: C1CC(C2=C(C1)C3=C(N2)C=CC(=C3)Cl)C(=O)N [Selisistat] + CC(=O)c1c(C)c2cnc(Nc3ccc(N4CCNCC4)cn3)nc2n(C2CCCC2)c1=O [Palbociclib] (partner 0.5 µM)
In short: as §1

Serdemetan + Palbociclib = compound: c1ccc2c(CCNc3ccc(Nc4ccncc4)cc3)c[nH]c2c1 [Serdemetan] + CC(=O)c1c(C)c2cnc(Nc3ccc(N4CCNCC4)cn3)nc2n(C2CCCC2)c1=O [Palbociclib] (partner 0.5 µM)
In short: as §1

Row | Cell Line | relative viability (Selisistat + AZD7762; first compound 0.4 µM) | relative viability (Selisistat + AZD7762; first compound 1.265 µM) | relative viability (Selisistat + AZD7762; first compound 12.65 µM) | relative viability (Selisistat + AZD7762; first compound 40 µM) | relative viability (Selisistat + Luminespib; first compound 0.4 µM) | relative viability (Selisistat + Luminespib; first compound 1.265 µM) | relative viability (Selisistat + Luminespib; first compound 4 µM) | relative viability (Selisistat + Luminespib; first compound 12.65 µM) | relative viability (Selisistat + Luminespib; first compound 40 µM) | relative viability (Selisistat + Palbociclib; first compound 0.4 µM) | relative viability (Selisistat + Palbociclib; first compound 1.265 µM) | relative viability (Selisistat + Palbociclib; first compound 12.65 µM) | relative viability (Selisistat + Palbociclib; first compound 40 µM) | relative viability (Serdemetan + Palbociclib; first compound 0.04 µM) | relative viability (Serdemetan + Palbociclib; first compound 0.1265 µM) | relative viability (Serdemetan + Palbociclib; first compound 0.4 µM) | relative viability (Serdemetan + Palbociclib; first compound 1.265 µM) | relative viability (Serdemetan + Palbociclib; first compound 4 µM) | relative viability (Selisistat + AZD7762; first compound 4 µM) | relative viability (Selisistat + Palbociclib; first compound 4 µM)
1 | NCI-H322M | 0.579 | 0.657 | 0.572 | 0.675 | 0.875 | 0.82 | 0.562 | 0.868 | 0.812 | 0.488 | 0.467 | 0.478 | 0.5 | 0.491 | 0.488 | 0.474 | 0.327 | 0.463 | – | –
2 | NCI-H522 | 0.63 | 0.672 | 0.9 | 1.01 | 1.07 | 1.1 | 0.789 | 1.17 | 1.08 | 1 | 0.969 | 0.921 | 1.02 | 1.01 | 0.954 | 0.899 | 0.681 | 0.856 | 0.622 | 0.714
3 | NCI-H647 | 0.465 | 0.433 | 0.432 | 0.553 | 0.119 | 0.205 | 0.146 | 0.111 | 0.15 | 0.415 | 0.331 | 0.433 | 0.396 | 0.374 | 0.332 | 0.528 | 0.322 | 0.243 | 0.345 | 0.398
4 | NCI-H2170 | 0.868 | 0.939 | 0.854 | 0.911 | 0.653 | 0.726 | 0.76 | 0.843 | 0.696 | 0.436 | 0.396 | 0.458 | 0.475 | 0.362 | 0.428 | 0.411 | 0.301 | 0.382 | 0.82 | 0.413
5 | NCI-H2085 | 1.06 | 1.02 | 0.992 | 0.983 | 0.569 | 0.406 | 0.47 | 0.452 | 0.4 | 0.486 | 0.476 | 0.522 | 0.496 | 0.46 | 0.457 | 0.466 | 0.382 | 0.342 | 0.67 | 0.433
6 | NCI-H727 | 0.675 | 0.563 | 0.615 | 0.527 | 0.389 | 0.231 | – | 0.268 | 0.349 | 0.738 | 0.613 | 0.601 | 0.637 | 0.351 | 0.638 | 0.604 | 0.722 | 0.644 | 0.369 | 0.442
7 | NCI-H441 | 1.19 | 1.06 | 0.969 | 1.32 | 0.294 | 0.382 | 0.349 | 0.339 | 0.344 | 0.24 | 0.186 | 0.217 | 0.239 | 0.206 | 0.212 | 0.18 | 0.147 | 0.225 | 1.29 | 0.136
8 | LOU-NH91 | 0.751 | 0.755 | 0.723 | 0.841 | 0.269 | 0.322 | 0.348 | 0.336 | 0.406 | 0.594 | 0.526 | 0.519 | 0.552 | 0.518 | 0.515 | – | – | 0.563 | 0.775 | 0.585
9 | NCI-H3122 | 1.03 | 0.95 | 1.04 | 1 | 0.0986 | 0.102 | 0.1 | 0.115 | 0.088 | 0.223 | 0.191 | 0.191 | 0.178 | 0.192 | 0.227 | 0.224 | 0.205 | 0.214 | – | –
10 | NCI-H460 | 0.617 | 0.488 | 0.571 | 0.697 | 0.0268 | 0.0346 | 0.0301 | 0.0377 | 0.0409 | 0.163 | 0.149 | 0.15 | 0.113 | 0.166 | 0.175 | 0.0992 | 0.0798 | 0.0544 | – | 0.137
11 | NCI-H650 | 1.15 | 0.988 | 0.867 | 1.13 | 0.874 | 0.772 | 0.894 | 0.77 | 0.665 | 0.379 | 0.319 | 0.387 | 0.339 | 0.332 | 0.365 | 0.344 | 0.282 | 0.287 | 1 | 0.443
12 | NCI-H1793 | 0.477 | 0.461 | 0.53 | 0.73 | 0.185 | 0.166 | – | 0.217 | 0.234 | 0.338 | 0.304 | 0.34 | 0.328 | 0.355 | 0.325 | 0.308 | 0.242 | 0.271 | – | –
13 | NCI-H1734 | 0.594 | 0.485 | 0.505 | 0.607 | 0.173 | 0.194 | 0.223 | 0.208 | 0.216 | 0.366 | 0.37 | 0.379 | 0.369 | 0.296 | 0.23 | 0.229 | 0.166 | 0.212 | 0.453 | 0.353
14 | LXF-289 | 1.12 | 1.14 | 1.03 | 1.1 | 0.601 | 0.565 | 0.696 | 0.686 | 0.673 | 0.628 | 0.639 | 0.557 | 0.619 | 0.544 | 0.542 | 0.527 | 0.524 | 0.381 | 0.936 | 0.55
15 | H3255 | 0.898 | 0.861 | 0.895 | 0.806 | 0.807 | 0.79 | 0.948 | 0.773 | 0.819 | 0.348 | 0.295 | 0.303 | 0.32 | 0.327 | 0.333 | 0.346 | 0.286 | 0.342 | 0.733 | 0.33
16 | 201T | 0.644 | 0.623 | 0.602 | 0.659 | 1.14 | 1.12 | 0.983 | 1.04 | 1.01 | 0.369 | 0.338 | 0.333 | 0.365 | 0.367 | 0.353 | 0.341 | 0.33 | 0.327 | 0.7 | 0.32
17 | NCI-H2126 | 1.04 | 1.04 | 1.03 | 1.03 | 0.929 | 0.972 | 0.872 | 0.947 | 0.965 | 0.377 | 0.369 | 0.362 | 0.37 | 0.356 | 0.379 | 0.349 | 0.329 | 0.354 | 0.992 | 0.336
18 | HOP-62 | 0.62 | 0.568 | 0.633 | 1.2 | 0.951 | 0.967 | 0.886 | 0.88 | 1.01 | 0.43 | 0.43 | 0.424 | 0.619 | 0.466 | 0.469 | 0.545 | 0.3 | 0.209 | 0.696 | 0.508
19 | CAL-12T | 0.589 | 0.626 | 0.605 | 0.732 | 0.546 | 0.326 | 0.275 | 0.784 | 0.401 | 0.534 | 0.41 | 0.448 | 0.409 | 0.467 | 0.422 | 0.35 | 0.424 | 0.539 | 0.566 | 0.122
20 | NCI-H1755 | 0.427 | 0.391 | 0.407 | 0.43 | 0.415 | 0.315 | 0.619 | 0.31 | 0.377 | 0.457 | 0.465 | 0.485 | 0.439 | 0.45 | 0.42 | 0.445 | 0.344 | 0.39 | 0.407 | 0.428
